Data: PubChem BioAssay AID252 (DTP/NCI, 2004)
“And” between values parts separate entries of the source, which are not always exact repeats. Equal entries are not always repeated. Inconclusive results and toxic doses are left out. The calls were made as follows: active = survival T/C of 150% or more; inactive = T/C below 125% in these data.

Tested on: BDF1 mice, intracerebral L1210 leukemia, survival T/C
Experiment: NCI In Vivo Anticancer Drug Screen. Data for tumor model L1210 Leukemia (intracerebral) in B6D2F1 (BDF1) mice
Conditions: higher = longer survival
Description: The antitumor activity of compounds was measured in mice bearing transplantable tumors. Survival or tumor size were measured and the results are expressed as the measurement made in the treated group (T) divided by the measurement made in the vehicle treated control group (C). The tumor model used in this assay is L1210 Leukemia (intracerebral) in B6D2F1 (BDF1) mice

Measured: T/C

C1CN1c1nc(N2CC2)nc(N2CC2)n1
inactive: endpoint: mean survival time, dose: 0.15 mg/kg/injection, schedule: Q01DX Z (ip), vehicle: saline 113 % of control | endpoint: mean survival time, dose: 0.25 mg/kg/injection, schedule: Q01DX Z (ip), vehicle: saline 119 % of control | endpoint: mean survival time, dose: 1.0 mg/kg/injection, schedule: Q01DX Z (ip), vehicle: saline 124 % of control | endpoint: mean survival time, dose: 1.5 mg/kg/injection, schedule: Q01DX Z (ip), vehicle: saline 97 % of control
active: endpoint: mean survival time, dose: 0.5 mg/kg/injection, schedule: Q01DX Z (ip), vehicle: saline 160 % of control | endpoint: mean survival time, dose: 0.75 mg/kg/injection, schedule: Q01DX Z (ip), vehicle: saline 156 % of control | endpoint: mean survival time, dose: 2.1 mg/kg/injection, schedule: Q01DX001 (ip), vehicle: saline 153 % of control | endpoint: mean survival time, dose: 3.2 mg/kg/injection, schedule: Q01DX001 (ip), vehicle: saline 182 % of control

S=C=NCCc1ccccc1
inactive: endpoint: mean survival time, dose: 25.0 mg/kg/injection, schedule: Q01DX009 (ip), vehicle: saline with Tween-80 93 % of control | endpoint: mean survival time, dose: 50.0 mg/kg/injection, schedule: Q01DX009 (ip), vehicle: saline with Tween-80 95 % of control
active: endpoint: mean survival time, dose: 12.5 mg/kg/injection, schedule: Q01DX009 (ip), vehicle: saline with Tween-80 343 % of control

CN(N=O)C(=O)NCCCCCNC(=O)N(C)N=O
inactive: endpoint: mean survival time, dose: 210.0 mg/kg/injection, schedule: Q01DX001 (ip), vehicle: carboxymethylcellulose (CMC) 113 % of control | endpoint: mean survival time, dose: 420.0 mg/kg/injection, schedule: Q01DX001 (ip), vehicle: carboxymethylcellulose (CMC) 123 % of control

CC(C)(C)C1CCCC(NC(=O)N(CCCl)N=O)C1 (stereo not given)
active: endpoint: mean survival time, dose: 187.0 mg/kg/injection, schedule: Q01DX001 (ip), vehicle: saline with Tween-80 169 % of control

[N-]=[N+]=CC(=O)NCC(=O)NN
inactive: endpoint: mean survival time, dose: 300.0 mg/kg/injection, schedule: Q01DX Z (ip), vehicle: water 101 % of control | endpoint: mean survival time, dose: 400.0 mg/kg/injection, schedule: Q01DX Z (ip), vehicle: water 87 % of control | endpoint: mean survival time, dose: 500.0 mg/kg/injection, schedule: Q01DX Z (ip), vehicle: water 87 % of control

CN(N=O)C(=O)NC(N)=O
inactive: endpoint: mean survival time, dose: 33.0 mg/kg/injection, schedule: Q01DX001 (ip), vehicle: carboxymethylcellulose (CMC) 102 % of control | endpoint: mean survival time, dose: 50.0 mg/kg/injection, schedule: Q01DX001 (ip), vehicle: carboxymethylcellulose (CMC) 105 % of control | endpoint: mean survival time, dose: 75.0 mg/kg/injection, schedule: Q01DX001 (ip), vehicle: carboxymethylcellulose (CMC) 114 % of control | endpoint: mean survival time, dose: 112.0 mg/kg/injection, schedule: Q01DX001 (ip), vehicle: carboxymethylcellulose (CMC) 115 % of control

C[C@@H](CN1CC(=O)NC(=O)C1)N1CC(=O)NC(=O)C1
inactive: endpoint: median survival time, dose: 8.0 mg/kg/injection, schedule: Q01DX009 (ip), vehicle: water 112 % of control | endpoint: median survival time, dose: 16.0 mg/kg/injection, schedule: Q01DX009 (ip), vehicle: water 121 % of control and 123 % of control | endpoint: median survival time, dose: 128.0 mg/kg/injection, schedule: Q01DX009 (ip), vehicle: water 123 % of control | endpoint: median survival time, dose: 256.0 mg/kg/injection, schedule: Q01DX009 (ip), vehicle: water 111 % of control | endpoint: median survival time, dose: 512.0 mg/kg/injection, schedule: Q01DX009 (ip), vehicle: water 113 % of control

O=NN(CCF)C(=O)NC12CC3CC(CC(C3)C1)C2
inactive: endpoint: mean survival time, dose: 10.0 mg/kg/injection, schedule: Q01DX001 (ip), vehicle: other 103 % of control | endpoint: mean survival time, dose: 20.0 mg/kg/injection, schedule: Q01DX001 (ip), vehicle: other 101 % of control | endpoint: mean survival time, dose: 40.0 mg/kg/injection, schedule: Q01DX001 (ip), vehicle: other 110 % of control | endpoint: mean survival time, dose: 60.0 mg/kg/injection, schedule: Q01DX001 (ip), vehicle: other 120 % of control

O=NN(CCBr)C(=O)NC1CCCCC1
inactive: endpoint: mean survival time, dose: 137.0 mg/kg/injection, schedule: Q01DX001 (ip), vehicle: carboxymethylcellulose (CMC) 108 % of control
active: endpoint: mean survival time, dose: 345.0 mg/kg/injection, schedule: Q01DX001 (ip), vehicle: carboxymethylcellulose (CMC) 224 % of control

Nc1n[nH]c(N)n1
inactive: endpoint: mean survival time, dose: 100.0 mg/kg/injection, schedule: Q03HX024 (ip), vehicle: saline 104 % of control and 97 % of control and 100 % of control | endpoint: mean survival time, dose: 150.0 mg/kg/injection, schedule: Q03HX024 (ip), vehicle: saline 102 % of control and 104 % of control and 99 % of control | endpoint: mean survival time, dose: 225.0 mg/kg/injection, schedule: Q01DX Z (ip), vehicle: saline 104 % of control | endpoint: mean survival time, dose: 225.0 mg/kg/injection, schedule: Q03HX024 (ip), vehicle: saline 102 % of control and 108 % of control and 110 % of control | endpoint: mean survival time, dose: 335.0 mg/kg/injection, schedule: Q03HX024 (ip), vehicle: saline 109 % of control and 119 % of control and 121 % of control | endpoint: mean survival time, dose: 375.0 mg/kg/injection, schedule: Q01DX Z (ip), vehicle: saline 108 % of control | endpoint: mean survival time, dose: 500.0 mg/kg/injection, schedule: Q03HX024 (ip), vehicle: saline 109 % of control and 122 % of control | endpoint: mean survival time, dose: 750.0 mg/kg/injection, schedule: Q01DX Z (ip), vehicle: saline 98 % of control
